Test results from patent US6395760B1, “Pesticidal 1-arylpyrazoles” (Rhone-Poulenc Inc., priority 1997, dated 2002).

What was measured:
Parameters in all cases: key: ‘X’ means highly active; ‘+’ means moderately active; ‘−’ means low activity
A. gossypii = assay: Foliar application (contact test) with aphids; format: in vivo, Aphis gossypii; conditions: 100 ppm formulation sprayed to runoff on aphid-infested cotton plants, dead aphids counted three days after treatment
From the text: Foliar Application (Contact Test) with Aphids Aphid-infested cotton plants were placed on a revolving turntable, and sprayed to runoff with a 100 ppm formulation of the selected compound of formula (I). The treated, A. gossypii-infested plants were held for three days after treatment, after which the dead aphids were counted.

Musca domestica = assay: Housefly bait/contact test; format: in vivo; conditions: 50 ppm in sugar water bait solution, adult houseflies, mortality after 24 hours
From the text: The Housefly Bait/Contact Test About 25 four to six-day-old adult houseflies were anesthetized and placed in a cage with a sugar water bait solution containing the compound. The concentration of the selected compound of formula (I) in the bait solution was 50 ppm.

Aphis gossypii = assay: Soil drench test (systemic activity), aphids on cotton plants; format: in vivo; conditions: 10.0 ppm soil concentration by weight, aphid counts at 5 DAT vs untreated control
From the text: (§1) The Soil Drench Test (Systemic Activity) Cotton and sorghum plants were established in pots. One day prior to treatment, each pot was infested with about 25 aphids of a mixed population. Cotton plants were infested with aphids and sorghum plants were infested with the greenbug. The selected compound of formula (I) was applied to the soil surface in a dilution that delivered the equivalent of 10.0 ppm soil concentration by weight. Aphid counts were obtained at 5 DAT (=days after treatment). The number of aphids on the treated plants was compared to the number of those on the untreated control plants.

Schizaphis graminum = assay: Soil drench test (systemic activity), greenbug on sorghum plants; format: in vivo; conditions: 10.0 ppm soil concentration by weight, counts at 5 DAT vs untreated control
From the text: as §1

Row | Compound | Foliar activity on aphids (A. gossypii) | Activity on house flies by contact (Musca domestica) | Systemic activity on aphids (Aphis gossypii) | Systemic activity on greenbugs (Schizaphis graminum)
1 | CSc1c(C2(C)OCC(CO)(CO)CO2)nn(-c2c(Cl)cc(C(F)(F)F)cc2Cl)c1N [Compound 14] | − | − | − | 
2 | CC1(c2nn(-c3c(Cl)cc(C(F)(F)F)cc3Cl)c(N)c2S(C)(=O)=O)SCC[S+]1[O-] (centres unmarked) [Compound 21] | − | X | − | −
3 | CC1COC(C)(c2nn(-c3c(Cl)cc(C(F)(F)F)cc3Cl)c(N)c2S(C)(=O)=O)O1 (centres unmarked) [Compound 8] | X | X | X | X
4 | CCNc1c(S(C)(=O)=O)c(C2(C)OCCO2)nn1-c1c(Cl)cc(C(F)(F)F)cc1Cl [Compound 34] | X | X | X | X
5 | CC1(c2nn(-c3c(Cl)cc(C(F)(F)F)cc3Cl)c(N)c2S(C)(=O)=O)OCCO1 [Compound 5] | X | X | X | X
6 | CC1(c2nn(-c3c(Cl)cc(C(F)(F)F)cc3Cl)c(N)c2S(C)(=O)=O)OCCS1 (centres unmarked) [Compound 23, 5-amino-1-[2,6-dichloro-4-(trifluoromethyl)phenyl]-3-(2-methyl-1,3-oxathiolane-2-yl)-4-methylsulfonyl-1H-pyrazole] |  | − | X | 
7 | C[S+]([O-])c1c(C2(C)OCC(CO)O2)nn(-c2c(Cl)cc(C(F)(F)F)cc2Cl)c1N (centres unmarked) [Compound 26] | − | X | − | +
8 | CNc1c([S+](C)[O-])c(C2(C)OCCO2)nn1-c1c(Cl)cc(C(F)(F)F)cc1Cl (racemic) [Compound 39] |  | − | + | X
9 | CSCC1COC(C)(c2nn(-c3c(Cl)cc(C(F)(F)F)cc3Cl)c(N)c2S(C)(=O)=O)O1 (centres unmarked) [Compound 30] |  | − | X | 
10 | COC(C)(OC)c1nn(-c2c(Cl)cc(C(F)(F)F)cc2Cl)c(N)c1SC [Compound 1, 5-amino-1-[2,6-dichloro-4-(trifluoromethyl)phenyl]-3-[(1,1-dimethoxy)ethyl]-4-methylthio-1H-pyrazole] | + | X | X | X
11 | CNc1c(SC)c(C2(C)OCCO2)nn1-c1c(Cl)cc(C(F)(F)F)cc1Cl [Compound 38] |  | X | X | X
12 | CCNc1c(SC)c(C2(C)OCCO2)nn1-c1c(Cl)cc(C(F)(F)F)cc1Cl [Compound 36] | + | X | X | 
13 | CSc1c(C2(C)OCCCO2)nn(-c2c(Cl)cc(C(F)(F)F)cc2Cl)c1N [Compound 12] | X | X | X | X
14 | CSc1c(C2(C)SCCS2)nn(-c2c(Cl)cc(C(F)(F)F)cc2Cl)c1N [Compound 16, 5-amino-1-[2,6-dichloro-4-(trifluoromethyl)phenyl]-3-(2-methyl-1,3-dithiolane-2-yl)-4-methylthio-1H-pyrazole] | + | X | − | X
15 | CC1(c2nn(-c3c(Cl)cc(C(F)(F)F)cc3Cl)c(N)c2S(C)(=O)=O)SCCS1 [Compound 17] | + | X | X | X
16 | CC1COC(C)(c2nn(-c3c(Cl)cc(C(F)(F)F)cc3Cl)c(N)c2[S+](C)[O-])O1 (centres unmarked) [Compound 11] | X | X | X | X
17 | CSCC1COC(C)(c2nn(-c3c(Cl)cc(C(F)(F)F)cc3Cl)c(N)c2SC)O1 (centres unmarked) [Compound 27] | − | X | X | +
18 | CNc1c(S(C)(=O)=O)c(C2(C)OCCO2)nn1-c1c(Cl)cc(C(F)(F)F)cc1Cl [Compound 35] | X | X | X | X
19 | CC1(c2nn(-c3c(Cl)cc(C(F)(F)F)cc3Cl)c(N)c2S(C)(=O)=O)OCCCO1 [Compound 13] | X | X |  | X
20 | CSc1c(C2(C)OCC(CO)O2)nn(-c2c(Cl)cc(C(F)(F)F)cc2Cl)c1N (centres unmarked) [Compound 6] | − | − | + | X
21 | CC1(c2nn(-c3c(Cl)cc(C(F)(F)F)cc3Cl)c(N)c2S(C)(=O)=O)S(=O)(=O)CCS1(=O)=O [Compound 25, 5-amino-1-[2,6-dichloro-4-(trifluoromethyl)phenyl]-3-(2-methyl-1,1,3,3-tetraoxo-1,3-dithiolane-2-yl)-4-methylsulfonyl-1H-pyrazole] |  | − | − | 
22 | C[S+]([O-])CC1COC(C)(c2nn(-c3c(Cl)cc(C(F)(F)F)cc3Cl)c(N)c2[S+](C)[O-])O1 (centres unmarked) [Compound 29] | X | X | X | −
23 | C[S+]([O-])c1c(C2(C)OCCO2)nn(-c2c(Cl)cc(C(F)(F)F)cc2Cl)c1N (centres unmarked) [Compound 10, 5-amino-1-[2,6-dichloro-4-(trifluoromethyl)phenyl]-3-(2-methyl-1,3-dioxolane-2-yl)-4-methylsulfinyl-1H-pyrazole] | X | X | X | X
24 | CSc1c(C2(C)OCCO2)nn(-c2c(Cl)cc(C(F)(F)F)cc2Cl)c1N [Compound 3] | X | X | X | X
25 | CC1(c2nn(-c3c(Cl)cc(C(F)(F)F)cc3Cl)c(N)c2S(C)(=O)=O)[S+]([O-])CC[S+]1[O-] (centres unmarked) [Compound 22] | − | − | X | +
26 | CSc1c(C2(C)OCC(C[S+](C)[O-])O2)nn(-c2c(Cl)cc(C(F)(F)F)cc2Cl)c1N (centres unmarked) [Compound 28] | X | X | X | −
27 | C[S+]([O-])CC1COC(C)(c2nn(-c3c(Cl)cc(C(F)(F)F)cc3Cl)c(N)c2S(C)(=O)=O)O1 (centres unmarked) [Compound 31] | + | + | X | 
28 | CCNc1c([S+](C)[O-])c(C2(C)OCCO2)nn1-c1c(Cl)cc(C(F)(F)F)cc1Cl (centres unmarked) [Compound 37] | X | X | X | 
29 | CSc1c(C2(C)OCCS2)nn(-c2c(Cl)cc(C(F)(F)F)cc2Cl)c1N (centres unmarked) [Compound 24] |  |  | X | X
